Laboratory results reported in patent publication US11618747B2, “LXR modulators with bicyclic core moiety” (OrsoBio, Inc., priority 2018, dated 2023).
Where two headings read alike, the source gives them in different places.

Tests used:
[1] = target: T1, LXRβ ligand-binding domain (Homo sapiens, UniProt P55055, DUP175-175); assay: TR-FRETβ activity assay (NCoA3 coactivator peptide recruitment); type: biochemical
T1 construct: amino acids 156-461; NP009052; made in house; host or cells: E. coli
T1 sequence (P55055 with tags, fused parts or gaps DUP175-175 limits assumed): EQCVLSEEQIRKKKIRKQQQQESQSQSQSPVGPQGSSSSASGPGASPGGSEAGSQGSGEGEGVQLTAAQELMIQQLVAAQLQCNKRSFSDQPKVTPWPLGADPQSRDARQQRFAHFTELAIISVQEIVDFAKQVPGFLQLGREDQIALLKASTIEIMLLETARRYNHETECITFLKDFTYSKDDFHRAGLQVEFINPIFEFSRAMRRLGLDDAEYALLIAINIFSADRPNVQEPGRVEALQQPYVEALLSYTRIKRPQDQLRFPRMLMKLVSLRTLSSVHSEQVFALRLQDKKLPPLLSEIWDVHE
Outline: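 Inverse agonism assessed by loss of coactivator recruitment, read as TR-FRET 665/615 nm after 1 h equilibration at 4 °C, in triplicate. Ten-point titration from 50 μM to 0.002 μM against LXRβ LBD (76 nM, GST fusion) prestimulated with 1 μM 24(S)-25-epoxycholesterol, with 400 nM NCoA3 peptide, pH 6.8. Sulfonyl acetic acids kept as 20 mM DMSO stocks with 100 mM TFA.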

[2] = Short term HFD mouse model: plasma and liver exposure; type: in vivo, mice (C57BL/6J); settings: HFD mice, 4 h after last dose
Protocol: Short Term HFD Mouse Model:
The in vivo transcriptional regulation of several LXR target genes by LXR modulators was assessed in mice.
For this, C57BL/6J were purchased from Elevage Janvier (Rennes, France) at the age of 8 weeks. After an acclimation period of two weeks, animals were preferred on a high fat diet (HFD) (Ssniff Spezialdiäten GmbH, Germany, Surwit EF D12330 mod, Cat. No. E15771-34), with 60 kcal % from fat plus 1% (w/w) extra cholesterol (Sigma-Aldrich, St. Louis, Mo.) for 5 days. Animals were maintained on this diet during treatment with LXR modulators. The test compounds were formulated in 0.5% hydroxypropylmethylcellulose (HPMC) and administered in three doses (from 1.5 to 20 mg/kg each) by oral gavage according to the following schedule: on day one, animals received treatment in the morning and the evening (ca. 17:00), on day two animals received the final treatment in the morning after a 4 h fast and were sacrificed 4 h thereafter. Animal work was conducted according to the national guidelines for animal care in Germany.
Upon termination, liver was collected, dipped in ice cold PBS for 30 seconds and cut into appropriate pieces. Pieces were snap frozen in liquid nitrogen and stored at −80° C. For the clinical chemistry analysis from plasma, alanine aminotransferase (ALT, IU/mL), cholesterol (CHOL, mg/dL) and triglycerides (TG, mg/dL) were determined using a fully-automated bench top analyzer (Respons®910, DiaSys Greiner GmbH, Flacht, Germany) with system kits provided by the manufacturer.

[3] = TR-FRET, 1 μM 24(S)-25-epoxycholesterol prestimulation, read-out: FRETβ (EC50 range)

SMILES | EC50 [1, 3] [nM] | liver exposure 4 h ([2]; three oral doses of 20 mg/kg) | liver/plasma ratio 4 h ([2]; three oral doses of 20 mg/kg) | plasma exposure 4 h ([2]; three oral doses of 20 mg/kg) | liver exposure 4 h ([2]; three oral doses of 10 mg/kg) | liver/plasma ratio 4 h ([2]; three oral doses of 10 mg/kg) | plasma exposure 4 h ([2]; three oral doses of 10 mg/kg) | FRETβ efficacy (value in brackets) ([1]; 1 μM 24(S)-25-epoxycholesterol as prestimulating agonist) [%] | EC50 ([1]; 1 μM 24(S)-25-epoxycholesterol as prestimulating agonist, read-out: FRETβ potency) [nM]
O=C(O)c1ccc(-c2cccc(-c3c(-c4c(Cl)cccc4Cl)c4cc(F)ccc4n3S(=O)(=O)c3ccc(C(F)F)cc3)c2)c(Cl)c1 [11/13] | < 100 | C (1 μM to ≤10 μM) | A (<5) | A (A: >1 μM) | – | – | – | – | –
N#Cc1sccc1-c1c(-c2cccc(-c3ccc(C(=O)O)cc3Cl)c2)n(S(=O)(=O)c2ccc(C(F)(F)F)nc2)c2ccc(F)cc12 [11/16] | 100 to 1000 | C (1 μM to ≤10 μM) | B (5 to ≤30) | C (C: 100 nM to <300 nM) | – | – | – | – | –
O=C(O)c1ccc(-c2cccc(-c3c(-c4ncccc4C(F)(F)F)c4cc(F)ccc4n3S(=O)(=O)c3ccc(C(F)F)cc3)c2)c(Cl)c1 [11/23] | < 100 | C (1 μM to ≤10 μM) | B (5 to ≤30) | C (C: 100 nM to <300 nM) | – | – | – | – | –
N#Cc1cccnc1-c1c(-c2cccc(-c3ccc(C(=O)O)cc3Cl)c2)n(S(=O)(=O)c2ccc(C(F)F)cc2)c2ccc(F)cc12 [11/26] | < 100 | – | – | – | C (1 μM to ≤10 μM) | C (30 to ≤100) | C (C: 100 nM to <300 nM) | – | –
COc1c(C(=O)O)ccc(-c2cccc(-c3c(-c4ccccc4C#N)c4cc(F)ccc4n3S(=O)(=O)c3ccc(C(F)F)cc3)c2)c1Cl [11/27] | < 100 | C (1 μM to ≤10 μM) | C (30 to ≤100) | D (D: <100 nM) | – | – | – | – | –
N#Cc1ccccc1-c1c(-c2cccc(-c3ccc(C(=O)O)cc3Cl)c2)n(S(=O)(=O)c2ccc(C(F)F)cc2)c2ccc(F)cc12 [11/33] | < 100 | C (1 μM to ≤10 μM) | C (30 to ≤100) | C (C: 100 nM to <300 nM) | – | – | – | −99 | 19
N#Cc1cccc(C#N)c1-c1c(-c2cccc(-c3ccc(C(=O)O)cc3Cl)c2)n(S(=O)(=O)c2ccc(C(F)(F)F)nc2)c2ccc(F)cc12 [11/37] | < 100 | – | – | – | C (1 μM to ≤10 μM) | C (30 to ≤100) | D (D: <100 nM) | – | –
N#Cc1ccccc1-c1c(-c2cccc(-c3ccc(C(=O)O)cc3Cl)c2)n(S(=O)(=O)c2ccc(C(F)F)cc2)c2cnccc12 [11/49] | < 100 | C (1 μM to ≤10 μM) | D (>100) | D (D: <100 nM) | – | – | – | – | –
N#Cc1cccc(C#N)c1-c1c(-c2cccc(-c3ccc(C(=O)O)cc3F)c2)n(S(=O)(=O)c2ccc(C(F)F)cc2)c2ccc(F)cc12 [11/51] | < 100 | – | – | – | C (1 μM to ≤10 μM) | C (30 to ≤100) | D (D: <100 nM) | – | –
N#Cc1cccc(C#N)c1-c1c(-c2cccc(-c3c(F)cc(C(=O)O)cc3F)c2)n(S(=O)(=O)c2ccc(C(F)F)cc2)c2ccc(F)cc12 [11/53] | < 100 | – | – | – | C (1 μM to ≤10 μM) | C (30 to ≤100) | D (D: <100 nM) | – | –
N#Cc1cccc(C#N)c1-c1c(-c2cccc(-c3ccc(C(=O)O)cc3Cl)c2)n(S(=O)(=O)C2CCC(F)(F)CC2)c2ccc(F)cc12 [11/63] | 100 to 1000 | – | – | – | C (1 μM to ≤10 μM) | B (5 to ≤30) | D (D: <100 nM) | – | –
N#Cc1cccc(C#N)c1-c1c(-c2cccc(-c3cc(F)c(C(=O)O)cc3Cl)c2)n(S(=O)(=O)c2ccc(C(F)F)cc2)c2ccc(F)cc12 [11/65] | < 100 | – | – | – | C (1 μM to ≤10 μM) | C (30 to ≤100) | D (D: <100 nM) | – | –
N#Cc1cccc(C#N)c1-c1c(-c2cccc(-c3ccc(C(=O)NCC(=O)O)cc3Cl)c2)n(S(=O)(=O)c2ccc(C(F)F)cc2)c2ccc(F)cc12 [21/3] | < 100 | – | – | – | C (1 μM to ≤10 μM) | D (>100) | D (D: <100 nM) | – | –
Cc1ccc(S(=O)(=O)n2c(-c3cccc(-c4ccc(C(=O)O)cc4)c3)c(-c3ccsc3C#N)c3cc(F)ccc32)cc1C [23/2] | 100 to 1000 | A (<300 nM) | A (<5) | C (C: 100 nM to <300 nM) | – | – | – | – | –
